Data from ChEMBL document CHEMBL5532639, “Heterocyclic pyrimidine derivatives as promising antibacterial agents” (Eur J Med Chem, 2023).
Values after ≈ are worked out from the molar mass of the structure shown.

Experiments:
[1] = system: Staphylococcus aureus; assay: Antibacterial activity against Staphylococcus aureus assessed as inhibition of bacterial growth incubated for 4 to 20 hrs by resazurin based microplate reader analysis; assay type: functional; settings: time 4-20 hrs
[2] = system: Pseudomonas aeruginosa; assay: Antibacterial activity against Pseudomonas aeruginosa assessed as inhibition of bacterial growth incubated for 4 to 20 hrs by resazurin based microplate reader analysis; assay type: functional; settings: time 4-20 hrs
[3] = system: Escherichia coli; assay: Antibacterial activity against Escherichia coli assessed as inhibition of bacterial growth incubated for 4 to 20 hrs by resazurin based microplate reader analysis; assay type: functional; settings: time 4-20 hrs
[4] = system: Bacillus subtilis; assay: Antibacterial activity against Bacillus subtilis assessed as inhibition of bacterial growth incubated for 4 to 20 hrs by resazurin based microplate reader analysis; assay type: functional; settings: time 4-20 hrs
[5] = system: Bacillus subtilis; assay: Antibacterial activity against Bacillus subtilis assessed as reduction in bacterial cell viability by well plate method; assay type: functional
[6] = system: Klebsiella pneumoniae; assay: Antibacterial activity against Klebsiella pneumoniae assessed as reduction in bacterial growth by broth microdilution method; assay type: functional
[7] = system: Pseudomonas aeruginosa; assay: Antibacterial activity against Pseudomonas aeruginosa assessed as inhibition of microbial growth by broth micro-dilution method; assay type: functional
[8] = system: Streptococcus pyogenes; assay: Antibacterial activity against Streptococcus pyogenes assessed as reduction in microbial growth incubated for 24 hrs by broth micro-dilution method; assay type: functional
[9] = system: Streptococcus pyogenes; assay: Antibacterial activity against Streptococcus pyogenes assessed as inhibition of microbial growth by broth micro-dilution method; assay type: functional
[10] = system: Escherichia coli; assay: Antibacterial activity Escherichia coli assessed as reduction in bacterial growth; assay type: functional
[11] = system: Staphylococcus aureus; assay: Antibacterial activity against Staphylococcus aureus assessed as inhibition of microbial growth by broth micro-dilution method; assay type: functional
[12] = system: Escherichia coli; assay: Antibacterial activity against Escherichia coli assessed as reduction in bacterial growth by broth microdilution method; assay type: functional
[13] = system: Pseudomonas aeruginosa; assay: Antibacterial activity against Pseudomonas aeruginosa assessed as reduction in microbial growth after 18 hrs by MTT based broth dilution method; assay type: functional
[14] = system: Escherichia coli; assay: Antibacterial activity against Escherichia coli assessed as reduction in bacterial growth incubated for 16 to 20 hrs by Mueller-Hinton broth based two-fold serial dilution method; assay type: functional; settings: time 16-20 hrs
[15] = system: Escherichia coli; assay: Antibacterial activity against Escherichia coli assessed as inhibition of microbial growth by broth micro-dilution method; assay type: functional
[16] = system: Staphylococcus epidermidis; assay: Antibacterial activity against Staphylococcus epidermidis assessed as reduction in microbial growth; assay type: functional
[17] = system: Pseudomonas aeruginosa; assay: Antibacterial activity against Pseudomonas aeruginosa ATCC 85327 assessed as reduction in bacterial growth measured after 24 hrs by Mueller-Hinton broth assay; assay type: functional
[18] = system: Escherichia coli; assay: microbe, parasite or virus in culture; settings: ATCC 25922, 24 h
Description: Antibacterial activity against Escherichia coli ATCC 25922 assessed as reduction in bacterial growth measured after 24 hrs by Mueller-Hinton broth assay

[19] = system: Bacillus subtilis; assay: Antibacterial activity against Bacillus subtilis ATCC 465 assessed as reduction in bacterial growth measured after 24 hrs by Mueller-Hinton broth assay; assay type: functional
[20] = system: Staphylococcus aureus; assay: microbe, parasite or virus in culture; settings: ATCC 25923, 24 h
Description: Antibacterial activity against Staphylococcus aureus ATCC 25923 assessed as reduction in bacterial growth measured after 24 hrs by Mueller-Hinton broth assay

[21] = system: Escherichia coli; assay: Antibacterial activity against Escherichia coli assessed as zone of inhibition at 50 microg/ml by cup plate analysis; assay type: functional; settings: read-out: IZ
[22] = system: Staphylococcus aureus; assay: Antibacterial activity against Staphylococcus aureus assessed as bacterial growth inhibition incubated for 24 hrs by CLSI protocol based Mueller-Hinton broth assay; assay type: functional
[23] = system: Bacillus subtilis; assay: Antibacterial activity against Bacillus subtilis 6633 assessed as reduction in bacterial growth; assay type: functional
[24] = system: Proteus vulgaris; assay: Antibacterial activity against Proteus vulgaris assessed as zone of inhibition at 50 microg/ml by cup plate analysis; assay type: functional; settings: read-out: IZ
[25] = system: Bacillus subtilis; assay: Antibacterial activity against Bacillus subtilis assessed as zone of inhibition at 50 microg/ml by cup plate analysis; assay type: functional; settings: read-out: IZ
[26] = system: Staphylococcus aureus; assay: Antibacterial activity against Staphylococcus aureus ATCC 3750 assessed as reduction in bacterial growth; assay type: functional
[27] = system: Salmonella typhimurium; assay: Antibacterial activity against Salmonella typhimurium DT104 assessed as reduction in bacterial growth; assay type: functional, Salmonella enterica subsp. enterica serovar Typhimurium; settings: Salmonella enterica
[28] = system: Bacillus pumilus; assay: Antibacterial activity against Bacillus pumilus assessed as zone of inhibition at 50 microg/ml by cup plate analysis; assay type: functional; settings: read-out: IZ
[29] = system: Enterococcus raffinosus; assay: Antibacterial activity against Enterococcus raffinosus assessed as bacterial growth inhibition incubated for 24 hrs by CLSI protocol based Mueller-Hinton broth assay; assay type: functional
[30] = system: Escherichia coli; assay: Antibacterial activity against Escherichia coli ATCC 25922 assessed as bacterial growth inhibition; assay type: functional

Cc1nc(NC(=O)c2ccncc2)c2c(C(F)(F)F)cc(-c3ccccc3)nc2n1
MIC [1]: 12.5 µg/mL (≈ 30.5 µM)
MIC [2]: 50 µg/mL (≈ 122 µM)
MIC [3]: 50 µg/mL (≈ 122 µM)
MIC [4]: 12.5 µg/mL (≈ 30.5 µM)

CC1(C)S[C@@H]2[C@H](NC(=O)[C@H](N)c3ccc(O)cc3)C(=O)N2[C@H]1C(=O)O [AMOXICILLIN]
MIC [1]: 0.39 µg/mL (≈ 1.07 µM)
MIC [2]: 1 µg/mL (≈ 2.74 µM)
MIC [3]: 0.5 µg/mL (≈ 1.37 µM)
MIC [4]: 0.39 µg/mL (≈ 1.07 µM)

O=C(O)c1cn(C2CC2)c2cc(N3CCNCC3)c(F)cc2c1=O [CIPROFLOXACIN]
MIC [5]: 24 µg/mL (≈ 72.4 µM)
MIC [6]: 22 µg/mL (≈ 66.4 µM)
MIC [7]: 200 µg/mL
MIC [8]: 12.5 µg/mL
MIC [9]: 50 µg/mL
MIC [10]: 22 µg/mL (≈ 66.4 µM)
MIC [11]: 50 µg/mL
MIC [12]: 25 µg/mL (≈ 75.4 µM)
MIC [13]: 22 µg/mL
MIC [14]: 25 µg/mL (≈ 75.4 µM)
MIC [15]: 25 µg/mL
MIC [16]: 22 µg/mL

N#Cc1nc2[nH]c(=O)[nH]c(=O)c2c(-c2ccc(Cl)cc2)c1N
MIC [17]: 512 µg/mL (≈ 1630 µM)
MIC [18]: 512 µg/mL (≈ 1630 µM)
MIC [19]: 8 µg/mL (≈ 25.5 µM)
MIC [20]: 2 µg/mL (≈ 6.38 µM)

Cc1nc(NC(=O)c2cc(C(F)(F)F)cc(C(F)(F)F)c2)c2c(C(F)(F)F)cc(-c3ccccc3)nc2n1
MIC [1]: 12.5 µg/mL (≈ 23 µM)
MIC [2]: 50 µg/mL (≈ 91.8 µM)
MIC [3]: 50 µg/mL (≈ 91.8 µM)
MIC [4]: 12.5 µg/mL (≈ 23 µM)

CC1(C)S[C@@H]2[C@H](NC(=O)Cc3ccccc3)C(=O)N2[C@H]1C(=O)O [PENICILLIN G]
zone of inhibition at 50 µg/mL [21]: 26 mm
MIC [22]: 24.4 µg/mL (≈ 73 µM)
MIC [23]: 22 µg/mL (≈ 65.8 µM)
zone of inhibition at 50 µg/mL [24]: 28 mm
zone of inhibition at 50 µg/mL [25]: 25 mm
MIC [26]: 6 µg/mL (≈ 17.9 µM)
MIC [27]: 5 µg/mL (≈ 15 µM)
zone of inhibition at 50 µg/mL [28]: 29 mm
MIC [29]: 93.5 µg/mL (≈ 280 µM)
MIC [30]: 5 µg/mL (≈ 15 µM)
